According to paper PMC3128102, “A Single Sex Pheromone Receptor Determines Chemical Response Specificity of Sexual Behavior in the Silkmoth Bombyx mori” (PLoS Genetics, 2011):

How the values were obtained:
[1] = biological target: T1, PxOR1 coexpressed with PxOR83 (Plutella xylostella, UniProt B5MEK0); test: electrophysiology, agonist-induced current in Xenopus oocytes; type: cell-based; settings: read-out: 50% effective concentration
T1 construct: coexpressed in Xenopus oocytes; heteromeric OR complex; with Odorant receptor coreceptor
T1 sequence (B5MEK0 1-422): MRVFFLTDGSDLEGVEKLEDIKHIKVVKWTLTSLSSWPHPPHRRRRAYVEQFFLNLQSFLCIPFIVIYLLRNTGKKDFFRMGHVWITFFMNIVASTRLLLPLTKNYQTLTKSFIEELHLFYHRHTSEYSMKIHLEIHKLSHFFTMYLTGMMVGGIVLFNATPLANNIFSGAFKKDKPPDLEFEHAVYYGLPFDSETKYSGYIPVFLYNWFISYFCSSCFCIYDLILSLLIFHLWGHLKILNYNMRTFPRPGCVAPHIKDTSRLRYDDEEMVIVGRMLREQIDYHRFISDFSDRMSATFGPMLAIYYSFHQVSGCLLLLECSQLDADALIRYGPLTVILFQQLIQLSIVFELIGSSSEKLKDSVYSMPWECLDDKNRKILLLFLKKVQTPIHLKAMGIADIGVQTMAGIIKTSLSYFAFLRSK
T1 sequence (D0EZE1 1-471 partner): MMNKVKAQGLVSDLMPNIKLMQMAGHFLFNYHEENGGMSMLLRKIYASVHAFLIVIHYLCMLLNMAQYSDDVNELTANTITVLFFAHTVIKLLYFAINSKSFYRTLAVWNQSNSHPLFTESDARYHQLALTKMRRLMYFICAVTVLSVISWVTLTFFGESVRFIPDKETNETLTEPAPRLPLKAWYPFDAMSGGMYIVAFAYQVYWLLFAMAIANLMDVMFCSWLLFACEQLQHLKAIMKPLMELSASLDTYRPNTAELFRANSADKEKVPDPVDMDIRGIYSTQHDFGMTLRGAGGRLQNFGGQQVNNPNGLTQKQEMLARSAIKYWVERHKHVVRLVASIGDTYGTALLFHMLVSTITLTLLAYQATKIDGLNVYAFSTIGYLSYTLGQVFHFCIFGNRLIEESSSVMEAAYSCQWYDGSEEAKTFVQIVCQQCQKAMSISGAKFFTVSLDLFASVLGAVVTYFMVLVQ

[2] = biological target: T2, PxOR1 coexpressed with BmOR2 (Plutella xylostella, UniProt B5MEK0); test: as above; type: cell-based; settings: PxOR1 with Bombyx mori co-receptor BmOR2, applied sequentially to same oocyte, n = 10, read-out: 50% effective concentration
T2 construct: coexpressed in Xenopus oocytes; mixed-species heteromeric OR complex, PxOR1 of Plutella xylostella with BmOR2 of Bombyx mori; with Odorant receptor coreceptor (Bombyx mori)
T2 sequence (B5MEK0 1-422): T1 sequence (B5MEK0 1-422)
Excerpt: electrophysiology, agonist-induced current in Xenopus oocytes on PxOR1 coexpressed with BmOR2 | PxOR1 with PxOR83 and PxOR1 with BmOR2, respectively

For `CCCC/C=C\CCCCCCCCCC=O` [Z11-16:Ald, (Z)-11-hexadecenal], the EC50 [1] was 420 nM and the EC50 [2] was 1200 nM.
